# Reference: US11478505B2, “Compositions of ixabepilone” (R-Pharm US Operating LLC, priority 2020, dated 2022)
# What was measured:
# [1] = system: A549 Human Lung Carcinoma; test: cytotoxicity, cell viability count after 96 h of treatment; assay type: cell-based; settings: 20 nM, trypan blue
# Procedure: (§1) After 96 hours of treatment, cells were counted for viability.
# (§2) Materials and Equipment: Eagle's Minimum Essential Media (ATCC No. 30-2003); F-12K Media (ATCC No. 30-2008); Fetal Bovine Serum (ATCC No. 30-2020); Penicillin/Streptomycin (Thermo Fisher No. 15-140-122); Human Recombinant Insulin 0.01 mg/mL (Sigma No. 19278); Trypsin (ATCC No. 25-200-072); Phosphate Buffered Saline (Corning from Thermo Fisher No. 21040CM); Hemocytometer (Hausser from Fischer No. 02-671-6); Trypan blue (Gibco No. 15250061); p100 tissue culture dishes (Falcon-Corning No. 08-772E). Ixabepilone (Lot 3L7304N) was provided by R-Pharm US. […] Saline control was phosphate-buffered 150 mM NaCl solution.
# (§3) Cells were rapidly thawed in a water bath at 37° C. and resuspended in appropriate media before being transferred to 60 mm or 100 mm tissue culture dishes. A549 cells were maintained in F12-K media, supplemented with 10% fetal bovine serum, and 1% penicillin/streptomycin. MCF7 cells were maintained in Eagle's Minimum Essential media, supplemented with 10% fetal bovine serum, 1% penicillin/streptomycin, and 0.01 mg/mL insulin. All cells were passaged at least three times before treatment. […] Saline was administered at the equivalent volume used for the ixabepilone treatment for each respective cell line. At 96 h, cells were trypsinized and harvested and counted with trypan blue on a hemocytometer.
# [2] = system: MCF7 Human Breast Adenocarcinoma; test: as above; assay type: cell-based; settings: 40 nM, trypan blue
# Procedure: as §1, §2, §3
# [3] = cited from earlier work
compound,measurement,setting,value
"C/C(=C\c1csc(C)n1)[C@@H]1C[C@@H]2O[C@]2(C)CCC[C@H](C)[C@H](O)[C@@H](C)C(=O)C(C)(C)[C@@H](O)CC(=O)N1 [ixabepilone, (1S,3S,7S,10R,11S,12S,16R)-7,11dihydroxy-8,8,10,12,16-pentamethyl-3-[(1E)-1-methyl-2-(2-methyl-4-thiazolyl)ethenyl]17-oxa-4-azabicyclo[14.1.0] heptadecane-5,9-dione]",average cell viability count,[1],106×10^4
same,average cell viability count,[2],70×10^4
same,tolerability,"[3]; doses of 0.1, 1.0 or 2.0 mg/kg, weekly IV, 5 doses",generally well tolerated
same,no observed adverse effect level (NOAEL),[3]; weekly intravenous dosing for one month (5 doses),0.1 mg/kg
